From patent US20060079453A1, “Hla binding peptides and their uses” (priority 2002, published 2006) come the findings set out here.

As a reminder, the pIC50 is the IC50 on a negative log10 scale, so that one unit is a factor of ten. Low readings indicate a large IC50, high ones a small IC50.

pIC50: −log10 of the molar value. No end group written: not given here.

Among the targets are HLA-DR DRB1*0802 (DR8) (Homo sapiens, UniProt P01903+P01911, A100R/A103L/A169T/F76Y/H45Y/I96F/K41T/L162R/M171V/P40S/Q125H/Q178H/Q39Y/Q99D/R218S/R42G/S66Y/V115G/W38E); HLA-DR DRB1*0301 (DR3) (Homo sapiens, UniProt P01903+P01911, A100K/A102G/A103R/A169T/F55Y/I96L/K41T/L162R/M171V/P40S/Q125H/Q178H/Q39Y/R42S/S66N/T106N/T262R/W38E/Y61H); HLA-DR DRB3*0101 (DR52) (Homo sapiens, UniProt P01903+P79483).

Holding throughout (test): biochemical
Common to all, as to format: binding

A further assay concerns the target HLA-DR DRB1*0101 (DR1) (Homo sapiens, UniProt P01903+P01911, A100R/D57E/F55L/F60I/F76Y/I96L/L162R/M171V/P40L/Q125E/R42F/V115G/Y59C). As to conditions: DRB1 *0101.
The target in another assay is HLA-DR DRB1*0701 (DR7) (Homo sapiens, UniProt P01903+P01911, A100R/A102G/A103Q/D57E/D86V/E43K/F76Y/K127E/L162R/M171V/P40G/Q125H/Q99D/R33Q/R42Y/R54Q/S133A/S66F/T210M/V115G/Y107V/Y59L/Y89S). As to conditions: DRB1 *0701.
In the next assay the target is HLA-DR DRB1*0901 (DR9) (Homo sapiens, UniProt P01903+P01911, A100R/A103E/D57H/D86V/F55Y/F60I/F76Y/I96F/K127E/L162R/M171V/P40D/Q125H/Q99R/R33Q/R42F/S133A/S66N/T210M/V115G/W38K/Y107V/Y59G/Y89S). As to conditions: DRB1 *0901.
In a further assay the target is HLA-DR DRB1*1501 (DR15) (Homo sapiens, UniProt P01903+P01911). As to conditions: DRBI *1501.
The target in a further assay is HLA-DR DRB1*0401 (DR4) (Homo sapiens, UniProt P01903+P01911, A100K/A169T/F76Y/I96L/K127E/L162R/M171V/N62H/P40V/Q125Y/R42H/S133A/S149N/S66Y/V115G/V209L/W38E). As to conditions: DRB1 *0401.
Another assay deals with HLA-DR DRB1*1101 (DR11) (Homo sapiens, UniProt P01903+P01911, A100R/A169T/A87E/I96F/K41T/L162R/M171V/P40S/Q125H/Q178H/Q39Y/Q99D/R42S/S66Y/T262R/V115G/W38E). As to conditions: DRB1 *1101.
The next assay has as its target HLA-DR DRB4*0101 (DR53) (Homo sapiens, UniProt P01903+P13762, G164S). As to conditions: DRB4 *0101.
In a further assay the target is HLA-DR DRB5*0101 (DR51) (Homo sapiens, UniProt P01903+Q30154). As to conditions: DRB5 *0101.
In a further assay the target is HLA-DR DRB1*1302 (DR13) (Homo sapiens, UniProt P01903+P01911, A100E/A169T/K41T/L162R/M171V/P40S/Q125H/Q178H/Q39Y/Q99D/R42S/S66N/T262R/V115G/W38E/Y61H). As to conditions: DRBI *1302.
Chain of HLA-DR DRB1*1302 (DR13) (P01903 26-254 limits assumed, other chains not shown): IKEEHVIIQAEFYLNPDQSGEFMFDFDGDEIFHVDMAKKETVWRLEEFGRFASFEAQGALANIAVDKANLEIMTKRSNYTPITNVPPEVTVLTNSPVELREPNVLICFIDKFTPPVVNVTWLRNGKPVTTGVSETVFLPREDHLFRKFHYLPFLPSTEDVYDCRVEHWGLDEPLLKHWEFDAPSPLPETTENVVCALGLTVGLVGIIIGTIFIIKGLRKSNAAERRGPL

Chain of HLA-DR DRB1*0301 (DR3) (P01903 26-254 limits assumed, other chains not shown): as above
Chain of HLA-DR DRB1*1101 (DR11) (P01903 26-254 limits assumed, other chains not shown): as above

Turning to `CSCC[C@H](NC(=O)[C@H](CC(C)C)NC(=O)[C@H](CC(=O)O)NC(=O)[C@@H](N)Cc1c[nH]cn1)C(=O)N[C@@H](CC(C)C)C(=O)N[C@@H](CC(C)C)C(=O)N[C@@H](CCCNC(=N)N)C(=O)N[C@@H](CC(C)C)C(=O)N[C@@H](CO)C(=O)N[C@@H](CCC(=O)O)C(=O)N1CCC[C@H]1C(=O)N[C@@H](C)C(=O)N[C@@H](CCC(=O)O)C(=O)N[C@@H](CC(C)C)C(=O)N[C@H](C(=O)O)[C@@H](C)O`, the pIC50 against HLA-DR DRB1*0101 (DR1) was 7.21; at HLA-DR DRB1*0701 (DR7), 6.82; at HLA-DR DRB1*0802 (DR8), 5.41; against HLA-DR DRB1*0901 (DR9) it was 7.66; against HLA-DR DRB1*1501 (DR15), 6.18; against HLA-DR DRB1*0401 (DR4) it was 5.21. Moreover, the pIC50 is 5.67 against HLA-DR DRB1*1101 (DR11); 7.35 against HLA-DR DRB4*0101 (DR53); 5.54 against HLA-DR DRB1*0301 (DR3); 5.28 on HLA-DR DRB3*0101 (DR52); 4.98 against HLA-DR DRB5*0101 (DR51); 8.64 on HLA-DR DRB1*1302 (DR13).
Regarding `CC[C@H](C)[C@H](N)C(=O)N[C@@H](CCCCN)C(=O)N[C@@H](CCCCN)C(=O)N[C@@H](Cc1ccccc1)C(=O)N[C@@H](CC(C)C)C(=O)N[C@@H](Cc1ccc(O)cc1)C(=O)N[C@@H](CC(N)=O)C(=O)N[C@@H](Cc1ccccc1)C(=O)N[C@H](C(=O)N[C@@H](CCC(N)=O)C(=O)N[C@H](C(=O)N1CCC[C@H]1C(=O)N[C@@H](Cc1c[nH]cn1)C(=O)N[C@@H](CC(C)C)C(=O)N[C@@H](C)C(=O)O)[C@@H](C)CC)[C@@H](C)O`, the pIC50 against HLA-DR DRB1*0101 (DR1) was 6.35; against HLA-DR DRB1*0701 (DR7), 7.54; against HLA-DR DRB1*0802 (DR8), 6.29; on HLA-DR DRB1*0901 (DR9) it was 6.80; at HLA-DR DRB1*1501 (DR15) it was 6.52; on HLA-DR DRB1*0401 (DR4), 7.37. Moreover, the negative logarithm of the IC50 (pIC50) at HLA-DR DRB1*1101 (DR11) is 6.86; against HLA-DR DRB4*0101 (DR53), 7.02; against HLA-DR DRB1*0301 (DR3), 5.09; on HLA-DR DRB3*0101 (DR52) it was 6.32; at HLA-DR DRB1*1302 (DR13), 7.57.
On to NGVLQGITSWGSEPC, for which the pIC50 on HLA-DR DRB1*0101 (DR1) was 6.02; against HLA-DR DRB1*0701 (DR7), 6.31; against HLA-DR DRB1*0802 (DR8), 5.23; against HLA-DR DRB1*0901 (DR9), 6.09; at HLA-DR DRB1*1501 (DR15), 6.59; against HLA-DR DRB1*0401 (DR4), 6.25. In addition, the pIC50 on HLA-DR DRB1*1101 (DR11) is 5.01; against HLA-DR DRB4*0101 (DR53), 5.35; on HLA-DR DRB1*0301 (DR3) it was 4.60; on HLA-DR DRB3*0101 (DR52) it was 5.09; on HLA-DR DRB1*1302 (DR13), 6.11.
GVILYSDPADYFAPG: the pIC50 is 5.81 against HLA-DR DRB1*0101 (DR1); 5.11 against HLA-DR DRB1*0701 (DR7); 3.97 against HLA-DR DRB1*0802 (DR8); 5.61 against HLA-DR DRB1*0901 (DR9); 6.02 against HLA-DR DRB1*1501 (DR15); 5.12 against HLA-DR DRB1*0401 (DR4). Besides, the pIC50 against HLA-DR DRB1*1101 (DR11) was less than 4.72; at HLA-DR DRB4*0101 (DR53) it was 7.19; against HLA-DR DRB1*0301 (DR3) it was 7.77; against HLA-DR DRB3*0101 (DR52), 8.06; against HLA-DR DRB1*1302 (DR13), 7.41.
Regarding `CC(C)C[C@H](NC(=O)[C@H](CCC(N)=O)NC(=O)[C@H](CC(=O)O)NC(=O)[C@H](CCC(=O)O)NC(=O)[C@H](CO)NC(=O)[C@H](CC(C)C)NC(=O)[C@@H]1CCCN1C(=O)[C@@H](NC(=O)[C@@H](N)[C@@H](C)O)C(C)C)C(=O)N[C@@H](CC(C)C)C(=O)N[C@@H](Cc1ccc(O)cc1)C(=O)N[C@@H](CC(C)C)C(=O)N1CCC[C@H]1C(=O)N[C@@H](Cc1ccccc1)C(=O)N[C@@H](CCCNC(=N)N)C(=O)O`, the negative-log IC50 (pIC50) was 5.40 against HLA-DR DRB1*0101 (DR1); 4.95 on HLA-DR DRB1*0701 (DR7); 4.38 on HLA-DR DRB1*0802 (DR8); 4.43 against HLA-DR DRB1*0901 (DR9); less than 5.63 at HLA-DR DRB1*1501 (DR15); 4.58 against HLA-DR DRB1*1101 (DR11). Besides, the pIC50 is 6.06 against HLA-DR DRB4*0101 (DR53), 6.48 against HLA-DR DRB1*0301 (DR3), 5.36 on HLA-DR DRB3*0101 (DR52) and 5.28 against HLA-DR DRB1*1302 (DR13).
